Experiments:
[1] = test system: rat aconitine-induced arrhythmia; type: in vivo, rats; settings: hydrochloride salts; for Prophylactic inde: ratio LD50:ED50, rats; for Therapeutic ind: ratio LD50:ED, rats
[2] = test system: acute myocardial ischemia induced arrhythmia; test: acute myocardial ischemia induced arrhythmia model (coronary artery ligation) in anesthetized rats; type: in vivo
Description: 1. An acute myocardial ischemia induced arrhythmia model was obtained by conducting chest opening to expose the heart and […] of the anterior descending branch of the coronary artery in anesthetized rats (“Methods in Pharmacological Experiments”, Second Edition, p. 1022, People's Medical Publishing House, Beijing, 1991).

[3] = test system: ouabain induced guinea pig arrhythmia; test: ouabain induced guinea pig arrhythmia model; type: in vivo
[4] = test system: arrhythmia patients; settings: cited from earlier work
[5] = test system: beiwutine induced rat arrhythmia; test: beiwutine induced rat arrhythmia model; type: in vivo

Molecule	Prophylactic inde [1]	Therapeutic ind [1]	also measured
O=S(=O)(Nc1cc(CN2CCCCC2)c(O)c(CN2CCCCC2)c1)c1cccc2ccccc12 [Compound B-87836, N-[3,5-bis(1-Piperidinomethyl)-4-hydroxy]phenyl-1-naphthalenesulfonamide]	33.5	9.7	–
Oc1c(CN2CCCC2)cc(Nc2ncnc3ccccc23)cc1CN1CCCC1 [changrolin]	–	–	inhibition of the incidence of ventrical premature beats [2]: 50%; amount of ouabain used for inducing ventrical premature beats, ventricular tachycardia and ventricular fibrillation [3]: significantly increase; ventricular premature beats ([4]; 2-3 days after oral administration, patients suffering from arrhythmia): disappear; ventricular premature beats and ventricular tachycardia ([4]; i.v. injection or instillation, patients): significant reduction or even disappearence; skin side effect ([4]; oral administration for over one month, patients, retrogresses after ceasing administration): reversible pigmentation on the skin; ED50 [5]: 3 mg/kg
N-[3,5-bis(1 -Pyrrolidinomethyl)-4-hydroxyl]benzyl-4-chlorobenzenesulfonamide [Compound B-87829]	55	8.6	–
N-[3,5-bis(1-Pyrrolidinomethyl)-4-hydroxy]phenyl-4-chlorobenzenesulfonamide [Compound B-86810]	5.3	–	–
N-[3,5-bis(1-Pyrrolidinomethyl)-4-hydroxy]phenyl-N-ethyl-4-toluenesulfonamide [Compound B-86809]	1.1	4.0	–
N-[3,5-bis(1-Pyrrolidinomethyl)-4-hydroxy]phenyl-N-methyl-4-acetamidobenzenesulfonamide [Compound B-87827]	3.0	2	–

Source: patent publication US6605635B1, “N-substituted benzyl or phenyl aromatic sulfamides compounds and the use thereof” (Shanghai Institute of Materia Medica Chinese Academy of …, priority 1999, dated 2003)
